Laboratory results published in publication PMC5794198, “Inhibitors of Trypanosoma cruzi Sir2 related protein 1 as potential drugs against Chagas disease” (PLoS Neglected Tropical Diseases, 2018).
Entries after “also recorded” stand apart in the source; their conditions may differ.

Columns and labels:
[1] = Solubility; format: physicochemical
[2] = tested on: T. cruzi Y strain (Luc+); assay: Mouse model of T. cruzi infection, bioluminescence imaging; format: in vivo, BALB/c mice; conditions: 5 mg/kg/day intravenously for 4 consecutive days from day 7 of infection; listed as BNIPSpd (9)
Description: To evaluate BNIPSpd (9) efficacy in vivo, five- to six-week-old female BALB/c mice (Charles River) and infected with T. cruzi trypomastigotes expressing luciferase. Parasites were collected from the supernatants of a monolayer of Vero infected cells, washed and suspended in PBS-glucose 0.2%, and injected intraperitoneally (1 x 10^4 per mouse). After 7 days of infection, mice were treated with drugs for 4 consecutive days orally with (benznidazole in 20% Kolliphor HS 15) or intravenously with (BNIPSpd (9) in 10% DMSO) at a dose of 100 or 5 mg/kg/day, respectively. Infection and treatment efficiency were evaluated following subcutaneous injection of 2.1 mg of luciferin and through live imaging using an IVIS Lumina LT (Perkin Elmer). Images of the animals were analysed using the Living Image software (Perkin Elmer).
Supplementary file pntd.0006180.s006.tif: S5 Fig In vivo efficacy testing of BNIPSpd (9). A) Mice were infected with 10^4 Luc^+ trypomastigotes by intraperitoneal injection. […] In the lower panel, bioluminescence signal of whole mice represented in average radiance (photons/sec/cm^2/sr) quantified before and after treatment. […] B) Snapshot Pharmacokinetics of BNIPSpd (9) in BALB/c mice by quantification of BNIPSpd (9) in the blood of mice by UHPLC-MS/MS ESI+ at different time-points after administration of a 5 mg/kg dose by intravenous injection. […]

[3] = C2C12 host cell cytotoxicity (cell ratio) in HCS assay; format: cell-based, Mouse; conditions: mouse, cell ratio, 72 h; read-out: C2C12 Cytotoxicity (CC50 ± SD)
Description: (§1) For the evaluation of the activity against T. cruzi amastigotes, high-content screening (HCS) was designed. In summary, 100 μL of host C2C12 cells (ATCC) were seeded in clear bottom black 96-well plates at a density of 2.5 x 10^4 cells/mL (2.5 × 10^3 cells/well). […] The parasites were allowed to infect for a 24 hr period, after which compounds were added in a volume of 50 μL. […] After 72 hrs of compound incubation, the wells were fixed with 4% paraformaldehyde for 15 to 30 mins. The plates were then washed once with deionized water and stained with a solution of DAPI (3 μM) for 1 hour. Plates were imaged in an INCell 2000 (GE Healthcare) high-content analyser by taking 16 pictures per well at 20 X objective amplification. Images were analysed with INCell Developer software (GE Healthcare) using the segmentation of host cell nuclei and parasite kinetoplast DNA. The measurement output used was the average number of parasites per cell calculated by the ratio of host cell nuclei/parasite kinetoplast DNA.

[4] = tested on: C2C12 cells; assay: as above; format: cell-based, Mouse; conditions: CC50 cell line (C2C12)/EC50 T. cruzi
Description: as §1

[5] = tested on: T. cruzi amastigotes; assay: High-content screening assay on intracellular T. cruzi amastigotes; format: cell-based, Trypanosoma cruzi; conditions: Trypanosoma cruzi, C2C12, 72 h, Y strain in C2C12 host cells, 72 h; read-out: Anti-T. cruzi Activity Amastigotes (EC50 ± SD)
Method in brief: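 C2C12 host cells were infected 24 hr with Y strain tissue culture-derived trypomastigotes, then exposed to compound for 72 hrs. After paraformaldehyde fixation and DAPI staining, high-content imaging segmented host nuclei and parasite kinetoplast DNA. Read-out was the average number of amastigotes per host cell.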

## O=C1c2cccc3cccc(c23)C(=O)N1CCCNCCCCNCCCNCCCN1C(=O)c2cccc3cccc(c23)C1=O [Compound 9, BNIP Spermidine]
[1]
  Aqueous solubility: up to 70%
[2]
  In vivo activity (bioluminescence signal vs vehicle): did not exhibit any in vivo activity; also recorded: lack of in vivo activity
[3]
  CC50 at 72 h: 24.5 ± 0.45 µM
[4]
  Selectivity Index: 8.8
[5]
  EC50: 2.84 ± 0.18 µM
